Assay results as given in patent US20090123563A1, “Pharmaceutical Preparations Comprising Insulin, Zinc Ions and Zinc-Binding Ligand” (NOVO NORDISK A/S, priority 2005, published 2009).

Row | Compound | melting point
1 | COc1cc(/C=C2\SC(=O)NC2=O)cc(I)c1O | 256 °C
2 | O=C1NC(=O)/C(=C/c2ccc3cc(O)ccc3c2)S1 | 310 to 314 °C
3 | O=C1NC(=O)/C(=C/c2c[nH]c3ccc([N+](=O)[O-])cc23)S1 | 330 to 333 °C
4 | O=C1NC(=O)/C(=C/c2c(Cl)cccc2Cl)S1 | 152 to 154 °C
5 | COc1cc(O)cc(OC)c1/C=C1\SC(=O)NC1=O | 331 to 333 °C
6 | Cc1cccc(C)c1/C=C1\SC(=O)NC1=O | 104 to 105 °C
7 | COc1cccc(OC)c1/C=C1\SC(=O)NC1=O | 241 to 242 °C
8 | COc1cc(OCc2c(F)cccc2[N+](=O)[O-])cc(OC)c1/C=C1\SC(=O)NC1=O | 255 to 256 °C
9 | O=C1NC(=O)/C(=C/c2cc3ccccc3o2)S1 | 265 to 266 °C
10 | CN(C)c1ccc(/C=C/C=C2\SC(=O)NC2=O)cc1 | 259 to 263 °C
11 | CC(/C=C1\SC(=O)NC1=O)=C\c1ccccc1 | 203 to 210 °C
12 | O=C1NC(=O)/C(=C/C(Cl)=C/c2ccccc2)S1 | 251 to 254 °C
13 | O=C1NC(=O)/C(=C/c2cc3ccccc3[nH]c2=O)S1 | 338 to 347 °C
14 | c1cc(COc2ccc3ccccc3c2)cc(-c2nnn[nH]2)c1 | 200 to 202 °C
